The source of these data is PubChem BioAssay AID190 (DTP/NCI, 2004).

The subject of this test is AKR/Lw mice, AKR lymphoma ip, median survival T/C. The experiment in a line: NCI In Vivo Anticancer Drug Screen. Data for tumor model Lymphoma AKR (Transplanted) (intraperitoneal) in AKR/Lw mice. Conditions: endpoint: median survival time, higher = longer survival. On the procedure: The antitumor activity of compounds was measured in mice bearing transplantable tumors. Survival or tumor size were measured and the results are expressed as the measurement made in the treated group (T) divided by the measurement made in the vehicle treated control group (C). The tumor model used in this assay is Lymphoma AKR (Transplanted) (intraperitoneal) in AKR/Lw mice

Where [1] appears, read: dose: 100.0 mg/kg/injection, schedule: Q01DX001 (ip), vehicle: saline.
The mark [2] stands for this setting: dose: 200.0 mg/kg/injection, schedule: Q01DX001 (ip), vehicle: saline.
Where [3] appears, read: dose: 200.0 mg/kg/injection, schedule: Q01DX001 (ip), vehicle: Klucel (hydroxypropylcellulose) (HPC).
[4] abbreviates: dose: 400.0 mg/kg/injection, schedule: Q01DX001 (ip), vehicle: Klucel (hydroxypropylcellulose) (HPC).
[5] abbreviates: dose: 25.0 mg/kg/injection, schedule: Q01DX001 (ip), vehicle: saline.
[6] abbreviates: dose: 100.0 mg/kg/injection, schedule: Q01DX001 (ip), vehicle: Klucel (hydroxypropylcellulose) (HPC).
The mark [7] stands for this setting: dose: 400.0 mg/kg/injection, schedule: Q01DX001 (ip), vehicle: saline.
Setting [8] is: dose: 50.0 mg/kg/injection, schedule: Q01DX001 (ip), vehicle: saline.

SMILES strings stand for the structures. Where “and” joins values, the source holds several entries; their conditions need not be identical. Identical values can stand only once. Toxic doses and inconclusive results are not listed.

Turning to `O=c1[nH]c(=O)n(C2CC(O)C(CO)O2)cc1F` (configuration not stated), the T/C runs as follows: (dose: 3.1 mg/kg/injection, schedule: Q04DX003 (ip), vehicle: saline) 100 % of control; (dose: 5.0 mg/kg/injection, schedule: Q01DX009 (ip), vehicle: saline) 100 % of control; (dose: 6.2 mg/kg/injection, schedule: Q04DX003 (ip), vehicle: saline) 92 % of control; (dose: 6.25 mg/kg/injection, schedule: Q01DX009 (ip), vehicle: saline) 104 % of control; (dose: 10.0 mg/kg/injection, schedule: Q01DX009 (ip), vehicle: saline) 106 % of control; (dose: 11.0 mg/kg/injection, schedule: Q01DX015 (ip), vehicle: saline) 86 % of control. Moreover, the T/C runs as follows: (dose: 12.5 mg/kg/injection, schedule: Q01DX015 (ip), vehicle: saline) 117 % of control; (dose: 12.5 mg/kg/injection, schedule: Q04DX003 (ip), vehicle: saline) 94 % of control and 102 % of control; (dose: 15.0 mg/kg/injection, schedule: Q01DX009 (ip), vehicle: saline) 102 % of control and 123 % of control; (dose: 16.5 mg/kg/injection, schedule: Q01DX015 (ip), vehicle: saline) 86 % of control; (dose: 25.0 mg/kg/injection, schedule: Q01DX015 (ip), vehicle: saline) 113 % of control; (dose: 25.0 mg/kg/injection, schedule: Q04DX003 (ip), vehicle: saline) 90 % of control and 97 % of control. The T/C by setting is: (dose: 40.0 mg/kg/injection, schedule: Q01DX015 (ip), vehicle: saline) 86 % of control; (dose: 50.0 mg/kg/injection, schedule: Q01DX015 (ip), vehicle: saline) 114 % of control and 121 % of control; (dose: 60.0 mg/kg/injection, schedule: Q01DX001 (ip), vehicle: saline) 111 % of control; (dose: 60.0 mg/kg/injection, schedule: Q01DX009 (ip), vehicle: saline) 112 % of control and 117 % of control; (dose: 75.0 mg/kg/injection, schedule: Q01DX009 (ip), vehicle: saline) 115 % of control; under setting [1], 95 % of control and 97 % of control. Further, the T/C was 86 % of control and 90 % of control and 104 % of control (dose: 100.0 mg/kg/injection, schedule: Q04DX003 (ip), vehicle: saline); 107 % of control (dose: 120.0 mg/kg/injection, schedule: Q01DX001 (ip), vehicle: saline); 105 % of control and 110 % of control and 116 % of control (dose: 150.0 mg/kg/injection, schedule: Q01DX001 (ip), vehicle: saline); 123 % of control (dose: 150.0 mg/kg/injection, schedule: Q04DX003 (ip), vehicle: saline); 104 % of control and 105 % of control and 119 % of control under setting [2]; 150 % of control (dose: 250.0 mg/kg/injection, schedule: Q04DX003 (ip), vehicle: saline).
For the compound `CCOC(=O)CCCl`, the T/C runs as follows: under setting [3], 111 % of control; under setting [4], 97 % of control.
For the compound `CO[C@H](C(=O)[C@@H](O)[C@@H](C)O)[C@@H]1Cc2cc3cc(OC4CC(OC5CC(O)C(O)C(C)O5)C(O)C(C)O4)c(C)c(O)c3c(O)c2C(=O)[C@H]1OC1CC(OC2CC(OC3CC(C)(O)C(O)C(C)O3)C(O)C(C)O2)C(O)C(C)O1` (some centres not stated), the T/C runs as follows: (dose: 0.12 mg/kg/injection, schedule: Q01DX009 (ip), vehicle: saline) 115 % of control; (dose: 0.25 mg/kg/injection, schedule: Q01DX009 (ip), vehicle: water) 95 % of control; (dose: 0.5 mg/kg/injection, schedule: Q01DX009 (ip), vehicle: water) 110 % of control.
`C[N+](C)(C)Cc1ccccc1`: under setting [5], the T/C was 91 % of control.
`CC(C)n1c(=S)[nH]c2ccccc2c1=O`: the T/C is 90 % of control under setting [6], 118 % of control under setting [3] and 104 % of control under setting [4].
Consider `COc1cccc(CNc2cccc(Cl)c2Cl)c1OC`, for which the T/C (dose: 200.0 mg/kg/injection, schedule: Q01DX001 (ip), vehicle: saline with Tween-80) is 93 % of control and 100 % of control; the T/C (dose: 400.0 mg/kg/injection, schedule: Q01DX001 (ip), vehicle: saline with Tween-80) was 93 % of control and 113 % of control.
Consider `Cc1c(N)nc([C@H](CC(N)=O)NC[C@H](N)C(N)=O)nc1C(=O)N[C@H](C(=O)N[C@H](C)[C@@H](O)[C@H](C)C(=O)N[C@H](C(=O)NCCc1nc(-c2nc(C(=O)NCCC[S+](C)C)cs2)cs1)[C@@H](C)O)C(OC1OC(CO)C(O)C(O)C1OC1OC(CO)C(O)C(OC(N)=O)C1O)c1cnc[nH]1` (some centres not stated), for which the T/C by setting is: (dose: 0.05 mg/kg/injection, schedule: Q01DX010 (ip), vehicle: saline) 120 % of control; (dose: 0.1 mg/kg/injection, schedule: Q01DX010 (ip), vehicle: saline) 103 % of control; (dose: 0.25 mg/kg/injection, schedule: Q01DX010 (ip), vehicle: saline) 116 % of control; (dose: 0.4 mg/kg/injection, schedule: Q01DX010 (ip), vehicle: saline) 113 % of control; (dose: 0.5 mg/kg/injection, schedule: Q01DX010 (ip), vehicle: saline) 106 % of control; (dose: 0.75 mg/kg/injection, schedule: Q01DX010 (ip), vehicle: saline) 106 % of control. Besides, the T/C reads like this: (dose: 1.0 mg/kg/injection, schedule: Q01DX010 (ip), vehicle: saline) 100 % of control; (dose: 1.5 mg/kg/injection, schedule: Q01DX010 (ip), vehicle: saline) 93 % of control; (dose: 1.9 mg/kg/injection, schedule: Q01DX010 (ip), vehicle: saline) 95 % of control; (dose: 2.0 mg/kg/injection, schedule: Q01DX010 (ip), vehicle: saline) 100 % of control.
As for `CC(C)(CNc1ccc(C(=O)O)cc1)[N+](=O)[O-]`, the T/C runs as follows: under setting [1], 102 % of control; under setting [2], 95 % of control; under setting [7], 86 % of control.
With `NCOC(=O)Cc1ccc(Br)cc1`, the T/C is, setting by setting: under setting [6], 106 % of control; under setting [3], 102 % of control; under setting [4], 106 % of control.
With `CCN(CC)CCOc1ccc2c(c1)C(=O)c1cc(OCCN(CC)CC)ccc1-2`, the T/C (dose: 2.5 mg/kg/injection, schedule: Q01DX001 (ip), vehicle: saline) was 106 % of control; the T/C (dose: 5.0 mg/kg/injection, schedule: Q01DX001 (ip), vehicle: saline) was 106 % of control; the T/C (dose: 10.0 mg/kg/injection, schedule: Q01DX001 (ip), vehicle: saline) was 106 % of control; the T/C (dose: 20.0 mg/kg/injection, schedule: Q01DX001 (ip), vehicle: saline) is 100 % of control; the T/C (dose: 25.0 mg/kg/injection, schedule: Q01DX007 (ip), vehicle: saline) was 272 % of control; the T/C under setting [8] is 102 % of control. In addition, the T/C (dose: 50.0 mg/kg/injection, schedule: Q01DX007 (ip), vehicle: saline) is 102 % of control.
Consider `CN(C)CCCc1c2ccccc2nc2ccc(Cl)cc12`, for which the T/C is 100 % of control (dose: 6.0 mg/kg/injection, schedule: Q01DX001 (ip), vehicle: saline); 103 % of control (dose: 12.0 mg/kg/injection, schedule: Q01DX001 (ip), vehicle: saline); 109 % of control under setting [5].
For `COc1cc2ccc(CCNCc3ccccc3)cc2cc1OC`, the T/C is, setting by setting: (dose: 25.0 mg/kg/injection, schedule: Q04DX003 (ip), vehicle: saline sonified) 92 % of control; (dose: 50.0 mg/kg/injection, schedule: Q04DX003 (ip), vehicle: saline sonified) 95 % of control; under setting [1], 116 % of control; (dose: 100.0 mg/kg/injection, schedule: Q04DX003 (ip), vehicle: saline sonified) 92 % of control.
For the compound `CCn1c(O)c(C=N)c(=O)[nH]c1=O`, the T/C is, setting by setting: under setting [8], 102 % of control; (dose: 50.0 mg/kg/injection, schedule: Q04DX003 (ip), vehicle: Klucel (hydroxypropylcellulose) (HPC)) 87 % of control; under setting [1], 94 % of control; under setting [2], 94 % of control; (dose: 200.0 mg/kg/injection, schedule: Q04DX003 (ip), vehicle: Klucel (hydroxypropylcellulose) (HPC)) 93 % of control.
Regarding `CC1(C)N=C(N)N=C(N)N1c1cc(Cl)ccc1Cl`, the T/C by setting is: under setting [5], 93 % of control; under setting [8], 93 % of control.
Consider `COc1ccc(N2C(=O)CC(Sc3ccccc3N)C2=O)cc1` (configuration not stated), for which the T/C under setting [4] is 87 % of control.
For the compound `C1=CC2(OCCO2)C2CC=CC3(OCCO3)C2C1` (configuration not stated), the T/C under setting [1] is 104 % of control, the T/C under setting [2] was 97 % of control and the T/C under setting [7] was 95 % of control.
The matching figures for `COC(=O)Cc1ccc([N+](=O)[O-])cc1[N+](=O)[O-]`: 94 % of control, 94 % of control and 97 % of control.
For `ClC1=C(Cl)C2(Cl)C(COc3ccc(Cl)cc3)CC1(Cl)C2(Cl)Cl` (configuration not stated), the T/C reads like this: under setting [1], 94 % of control; under setting [2], 88 % of control; under setting [7], 91 % of control.
